Like-named read-outs stand apart in the source and are kept apart here.
What was measured:
Cbl-b = target: T1, Cbl-b (Homo sapiens, UniProt Q13191); experiment: Cbl-b probe displacement HTRF binding assay; conditions: 0.4 nM Cbl-b, 150 nM BODIPY probe
T1 construct: biotin (biotinylated protein)
Method in brief: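 Binding IC50 from four-parameter fit of HTRF signal loss, normalised to DMSO (0%) and no-protein (100%) wells. Biotinylated Cbl-b 0.4 nM was preincubated 60 min with compound (20-point 1:2 dilution) before 15 min with 150 nM BODIPY probe; Tb-streptavidin detection.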

Jurkat cells = experiment: IL-2 secretion assay in Jurkat cells activated with CD3/CD28 T Cell Activator; format: cell-based; conditions: Homo sapiens, 24 h, read-out: IL-2 Secretion (EC50)
Method in brief: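 Jurkat cells in Opti-MEM were preincubated 1 h at 37° C with compound (final 10 μM to 300 pM, 16-point 1:2 dilution), then activated with human CD3/CD28 T Cell Activator for 24 h at 37° C. Supernatant IL-2 measured by AlphaLISA; EC50 from 4-parameter logistic fit.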

[1] = Jurkat cells, CD3/CD28 T Cell Activator, IL-2 AlphaLISA

T1 sequence (Q13191 whole entry, species assumed): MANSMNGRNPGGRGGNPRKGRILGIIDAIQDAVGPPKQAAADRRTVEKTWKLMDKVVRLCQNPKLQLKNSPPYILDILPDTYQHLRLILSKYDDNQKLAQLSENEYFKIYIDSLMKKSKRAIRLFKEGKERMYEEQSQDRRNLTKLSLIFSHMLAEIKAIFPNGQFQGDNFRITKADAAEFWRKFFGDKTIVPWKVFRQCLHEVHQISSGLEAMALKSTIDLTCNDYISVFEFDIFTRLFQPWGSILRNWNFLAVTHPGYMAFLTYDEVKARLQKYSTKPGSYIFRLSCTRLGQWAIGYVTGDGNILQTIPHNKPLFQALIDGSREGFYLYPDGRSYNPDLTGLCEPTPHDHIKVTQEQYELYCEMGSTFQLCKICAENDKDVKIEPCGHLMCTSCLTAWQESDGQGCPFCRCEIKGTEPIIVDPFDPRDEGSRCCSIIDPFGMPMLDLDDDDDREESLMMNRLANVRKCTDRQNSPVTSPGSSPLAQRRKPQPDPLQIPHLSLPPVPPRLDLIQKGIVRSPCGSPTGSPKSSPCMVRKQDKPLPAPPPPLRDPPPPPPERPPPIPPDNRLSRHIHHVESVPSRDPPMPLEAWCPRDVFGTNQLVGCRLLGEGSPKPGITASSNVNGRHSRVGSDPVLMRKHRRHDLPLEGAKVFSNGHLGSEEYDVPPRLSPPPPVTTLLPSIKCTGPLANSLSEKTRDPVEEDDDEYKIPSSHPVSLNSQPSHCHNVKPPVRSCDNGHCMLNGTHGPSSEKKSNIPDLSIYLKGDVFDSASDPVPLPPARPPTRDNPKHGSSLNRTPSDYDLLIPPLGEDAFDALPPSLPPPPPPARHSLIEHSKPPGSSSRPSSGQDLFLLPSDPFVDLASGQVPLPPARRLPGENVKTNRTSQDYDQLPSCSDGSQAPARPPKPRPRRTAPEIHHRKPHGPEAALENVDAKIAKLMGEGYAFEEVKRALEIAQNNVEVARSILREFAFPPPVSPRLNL

SMILES | IC50 (Cbl-b) | EC50 (Jurkat cells; [1]) | EC50 (Jurkat cells; Jurkat)
CN1C[C@@H]2C[C@H]1CN2Cc1cc(C(=O)Nc2cc(-c3ccc(C#N)cc3-c3nccn3C)cc(C3CC3)n2)c(=O)n(C2CC2)c1 [Example 38, N-{4-[4-cyano-2-(1-methyl-2-imidazolyl)phenyl]-6-cyclopropyl-2-pyridyl}-5-({(1S,4S)-5-methyl-2,5-diazabicyclo[2.2.1]hept-2-yl}methyl)-1-cyclopropyl-2-oxo-1,2-dihydronicotinamide] | 100 to 1000 nM | 1000 to 5000 nM | –
CO[C@H]1CCN(Cc2cc(C(=O)Nc3cc(-c4ccc(F)cc4-c4nncn4C)cc(C4CC4)n3)c(=O)n(C3CC3)c2)C1 [Example 16, N-{6-cyclopropyl-4-[4-fluoro-2-(4-methyl-4H-1,2,4-triazol-3-yl)phenyl]-2-pyridyl}-5-{[(S)-3-methoxy-1-pyrrolidinyl]methyl}-1-cyclopropyl-2-oxo-1,2-dihydronicotinamide] | < 100 nM | 100 to 1000 nM | –
C[C@H]1CCCN(Cc2cc(C(=O)Nc3cc(-c4ccc(C#N)cc4-c4nncn4C)cc(C4CC4)n3)c(=O)n(C3CC3)c2)C1 [Example 1, N-{4-[4-cyano-2-(4-methyl-4H-1,2,4-triazol-3-yl)phenyl]-6-cyclopropyl-2-pyridyl}-5-{[(S)-3-methyl-1-piperidyl]methyl}-1-cyclopropyl-2-oxo-1,2-dihydronicotinamide] | < 100 nM | – | < 100 nM
Cn1ccnc1-c1cc(C#N)ccc1-c1cc(NC(=O)c2cc(CNCCOC(F)(F)F)cn(C3CC3)c2=O)nc(C2CC2)c1 [Example 40, N-{4-[4-cyano-2-(1-methyl-2-imidazolyl)phenyl]-6-cyclopropyl-2-pyridyl}-1-cyclopropyl-2-oxo-5-[(2-trifluoromethoxyethylamino)methyl]-1,2-dihydronicotinamide] | < 100 nM | 100 to 1000 nM | –
Cn1cnnc1-c1cc(F)ccc1-c1cc(NC(=O)c2cc(-c3cccc(N)c3)cn(C3CC3)c2=O)nc(C2CC2)c1 [Example 28, N-{6-Cyclopropyl-4-[4-fluoro-2-(4-methyl-4H-1,2,4-triazol-3-yl)phenyl]-2-pyridyl}-5-(m-aminophenyl)-1-cyclopropyl-2-oxo-1,2-dihydronicotinamide] | 100 to 1000 nM | > 5000 nM | –
CO[C@@H](C)CNCc1cc(C(=O)Nc2cc(-c3ccc(F)cc3-c3nncn3C)cc(C3CC3)n2)c(=O)n(C2CC2)c1 [Example 17, N-{6-cyclopropyl-4-[4-fluoro-2-(4-methyl-4H-1,2,4-triazol-3-yl)phenyl]-2-pyridyl}-5-{[(S)-2-methoxypropylamino]methyl}-1-cyclopropyl-2-oxo-1,2-dihydronicotinamide] | < 100 nM | < 100 nM | –
C[C@H]1CCCN(Cc2cc(C(=O)Nc3cc(-c4ccc(F)cc4-c4nncn4C)cc(C4CC4)n3)c(=O)n(C3CC3)c2)C1 [Example 2, 1-Cyclopropyl-N-[6-cyclopropyl-4-[4-fluoro-2-(4-methyl-1,2,4-triazol-3-yl)phenyl]pyridin-2-yl]-5-[[(3S)-3-methylpiperidin-1-yl]methyl]-2-oxopyridine-3-carboxamide] | < 100 nM | < 100 nM | –
C=CCn1cc(CN(C)C)cc(C(=O)Nc2cc(-c3ccc(F)cc3-c3nncn3C)cc(C3CC3)n2)c1=O [Example 34, N-{6-Cyclopropyl-4-[4-fluoro-2-(4-methyl-4H-1,2,4-triazol-3-yl)phenyl]-2-pyridyl}-1-allyl-5-[(dimethylamino)methyl]-2-oxo-1,2-dihydronicotinamide] | < 100 nM | 1000 to 5000 nM | –
CO[C@@H](C)[C@H](C)NCc1cc(C(=O)Nc2cc(-c3ccc(F)cc3-c3nncn3C)cc(C3CC3)n2)c(=O)n(C2CC2)c1 [Example 23, N-{6-cyclopropyl-4-[4-fluoro-2-(4-methyl-4H-1,2,4-triazol-3-yl)phenyl]-2-pyridyl}-5-{[(1S,2S)-2-methoxy-1-methylpropylamino]methyl}-1-cyclopropyl-2-oxo-1,2-dihydronicotinamide] | < 100 nM | < 100 nM | –

Further lines, with some results ahead:

IC50 (Cbl-b) | EC50 (Jurkat cells; [1]) | SMILES | EC50 (Jurkat cells; Jurkat)
100 to 1000 nM | 1000 to 5000 nM | Cc1cccnc1-c1cc(C#N)ccc1-c1cc(NC(=O)c2cc(CN3CCO[C@H](C)C3)cn(C3CC3)c2=O)nc(C2CC2)c1 [Example 75, N-[4-[4-cyano-2-(3-methylpyridin-2-yl)phenyl]-6-cyclopropylpyridin-2-yl]-1-cyclopropyl-5-[[(2R)-2-methylmorpholin-4-yl]methyl]-2-oxopyridine-3-carboxamide] | –
1000 to 5000 nM | > 5000 nM | COCCNCc1cc(C(=O)Nc2cc(-c3ccc(C#N)cc3-c3ocnc3C)cc(C3CC3)n2)c(=O)n(C2CC2)c1 [Example 52, N-{4-[4-cyano-2-(4-methyl-1,3-oxazol-5-yl)phenyl]-6-cyclopropyl-2-pyridyl}-1-cyclopropyl-5-[(2-methoxyethylamino)methyl]-2-oxo-1,2-dihydronicotinamide] | –
100 to 1000 nM | 100 to 1000 nM | C[C@H]1CCCN(Cc2cc(C(=O)Nc3cccc(C4(c5nncn5C)CC(F)(F)C4)c3)c(=O)n(C3CC3)c2)C1 [Example 79, 1-cyclopropyl-N-[3-[3,3-difluoro-1-(4-methyl-1,2,4-triazol-3-yl)cyclobutyl]phenyl]-5-[[(3S)-3-methylpiperidin-1-yl]methyl]-2-oxopyridine-3-carboxamide] | –
100 to 1000 nM | 100 to 1000 nM | CO[C@H]1C[C@@](c2cccc(NC(=O)c3cc(CN4CCC[C@H](C)C4)cn(C4CC4)c3=O)c2)(c2nncn2C)C1 [Example 80, 1-cyclopropyl-N-[3-[3-methoxy-1-(4-methyl-1,2,4-triazol-3-yl)cyclobutyl]phenyl]-5-[[(3S)-3-methylpiperidin-1-yl]methyl]-2-oxopyridine-3-carboxamide] | –
< 100 nM | 100 to 1000 nM | COCCNCc1cc(C(=O)Nc2cc(-c3ccc(C#N)cc3-c3nc(C#N)cn3C)cc(C3CC3)n2)c(=O)n(CC2CC2)c1 [Example 63, N-{4-[4-cyano-2-(4-cyano-1-methyl-2-imidazolyl)phenyl]-6-cyclopropyl-2-pyridyl}-1-(cyclopropylmethyl)-5-[(2-methoxyethylamino)methyl]-2-oxo-1,2-dihydronicotinamide] | –
< 100 nM | < 100 nM | CC1CC(c2cccc(NC(=O)c3cc(CN4CCC[C@H](C)C4)cn(C4CC4)c3=O)c2)(c2nncn2C)C1 (mixture of isomers) [Example 76, 1-cyclopropyl-N-[3-[3-methyl-1-(4-methyl-1,2,4-triazol-3-yl)cyclobutyl]phenyl]-5-[[(3S)-3-methylpiperidin-1-yl]methyl]-2-oxopyridine-3-carboxamide] | –
100 to 1000 nM | 1000 to 5000 nM | C[C@H]1CCCN(Cc2cc(C(=O)Nc3cc(-c4ccc(C(N)=O)cc4-c4nccn4C)cc(C4CC4)n3)c(=O)n(C3CC3)c2)C1 [Example 44, N-{4-[4-carbamoyl-2-(1-methyl-2-imidazolyl)phenyl]-6-cyclopropyl-2-pyridyl}-5-{[(S)-3-methyl-1-piperidyl]methyl}-1-cyclopropyl-2-oxo-1,2-dihydronicotinamide] | –
< 100 nM | 100 to 1000 nM | COCCNCc1cc(C(=O)Nc2cc(-c3ccc(F)cc3C(=O)N3CC(F)(F)C3)cc(C3CC3)c2)c(=O)n(C2CC2)c1 [Example 69, N-{5-cyclopropyl-2′-[(3,3-difluoro-1-azetidinyl)carbonyl]-4′-fluoro-3-biphenylyl}-1-cyclopropyl-5-[(2-methoxyethylamino)methyl]-2-oxo-1,2-dihydronicotinamide] | –
< 100 nM | 100 to 1000 nM | C[C@H]1CCCN(Cc2cc(C(=O)Nc3cc(-c4ccc(F)cc4-c4nncn4C)cc(C4CC4)n3)c(=O)n(CC3CCOCC3)c2)C1 [Example 60, N-[6-cyclopropyl-4-[4-fluoro-2-(4-methyl-1,2,4-triazol-3-yl)phenyl]pyridin-2-yl]-5-[[(3S)-3-methylpiperidin-1-yl]methyl]-1-(oxan-4-ylmethyl)-2-oxopyridine-3-carboxamide] | –
100 to 1000 nM | 1000 to 5000 nM | C[C@H]1CCCN(Cc2cc(C(=O)Nc3cc(C#N)cc(-c4ccc(F)cc4C(=O)N4CC(F)C4)c3)c(=O)n(C3CC3)c2)C1 [Example 66, N-{5-cyano-4′-fluoro-2′-[(3-fluoro-1-azetidinyl)carbonyl]-3-biphenylyl}-5-{[(S)-3-methyl-1-piperidyl]methyl}-1-cyclopropyl-2-oxo-1,2-dihydronicotinamide] | –
< 100 nM | < 100 nM | Cn1cc(CNC[C@@H]2CCCO2)cc(C(=O)Nc2cc(-c3ccc(Cl)cc3C(=O)N3CC(F)(F)C3)cc(C3CC3)n2)c1=O [Example 107, N-[4-[4-chloro-2-(3,3-difluoroazetidine-1-carbonyl)phenyl]-6-cyclopropylpyridin-2-yl]-1-methyl-2-oxo-5-[[[(2S)-oxolan-2-yl]methylamino]methyl]pyridine-3-carboxamide] | –

Source: patent publication US20260116868A1 (Arcus Biosciences, Inc., priority 2023, published 2026)
